The numbers were not newly measured in patent US20200230059A1, “Solid Micronized Melatonin Composition” (Physician's Seal, LLC, priority 2019, published 2020), which cites them from elsewhere.

Like-named read-outs stand apart in the source and are kept apart here.

With `COc1ccc2[nH]cc(CCNC(C)=O)c2c1` [Melatonin], the solubility result runs as follows: (gastric environment, pH approximately 1 to 3) “relatively high”; (lower GI tract environment, pH approximately 5.5 to 7) “decreases even further”; (upper GI tract environment, pH approximately 4.5 to 5.5) “decreases”.
